# Experimental data as given in PubChem BioAssay (NCI).
#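 These data come from cells grown in 96-well plates and exposed to compound for 48 hours at five concentrations. TGI marks complete inhibition of growth.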
# Legend:
# Assay in all cases: NCI-60 cell line screen, 48 h
# [1] = test system: 786-0 renal
# [2] = test system: A498 renal
# [3] = test system: A549 NSCLC
# [4] = test system: ACHN renal
# [5] = test system: BT-549 breast
# [6] = test system: CAKI-1 renal
# [7] = test system: CCRF-CEM leukemia
# [8] = test system: COLO 205 colon
# [9] = test system: DU-145 prostate
# [10] = test system: EKVX NSCLC
# [11] = test system: HCC-2998 colon
# [12] = test system: HCT-116 colon
# [13] = test system: HCT-15 colon
# [14] = test system: HL-60(TB) leukemia
# [15] = test system: HOP-62 NSCLC
# [16] = test system: HOP-92 NSCLC
# [17] = test system: HS 578T breast
# [18] = test system: HT29 colon
# [19] = test system: IGROV1 ovarian
# [20] = test system: K-562 leukemia
# [21] = test system: KM12 colon
# [22] = test system: LOX IMVI melanoma
# [23] = test system: M14 melanoma
# [24] = test system: MALME-3M melanoma
# [25] = test system: MCF7 breast
# [26] = test system: MDA-MB-231 breast
# [27] = test system: MDA-MB-435
# [28] = test system: MDA-N
# [29] = test system: NCI-H226 lung
# [30] = test system: NCI-H23 lung
# [31] = test system: NCI-H460 lung
# [32] = test system: NCI-H522 lung
# [33] = test system: NCI/ADR-RES ovarian
# [34] = test system: OVCAR-3 ovarian
# [35] = test system: OVCAR-4 ovarian
# [36] = test system: OVCAR-5 ovarian
# [37] = test system: OVCAR-8 ovarian
# [38] = test system: PC-3 prostate
# [39] = test system: RPMI-8226 leukemia
# [40] = test system: RXF 393 renal
# [41] = test system: SF-268 CNS
# [42] = test system: SF-295 CNS
# [43] = test system: SF-539 CNS
# [44] = test system: SK-MEL-2 melanoma
# [45] = test system: SK-MEL-28 melanoma
# [46] = test system: SK-MEL-5 melanoma
# [47] = test system: SK-OV-3 ovarian
# [48] = test system: SN12C renal
# [49] = test system: SNB-19 CNS
# [50] = test system: SNB-75 CNS
# [51] = test system: SW-620 colon
# [52] = test system: T-47D breast
# [53] = test system: TK-10 renal
# [54] = test system: U251 CNS
# [55] = test system: UACC-257 melanoma
# [56] = test system: UACC-62 melanoma
# [57] = test system: UO-31 renal
# [58] = test system: MOLT-4 leukemia
# [59] = test system: SR leukemia
smiles,measurement,setting,value
O=C(/C(=C(/O)c1ccccc1)c1nc2ccccc2sc1=O)c1ccccc1,TGI,[1],> 100 µM
same,TGI,[2],> 100 µM
same,TGI,[3],> 100 µM
same,TGI,[4],> 100 µM
same,TGI,[5],> 100 µM
same,TGI,[6],> 100 µM
same,TGI,[7],6.51 µM
same,TGI,[8],> 100 µM
same,TGI,[9],> 100 µM
same,TGI,[10],> 100 µM
same,TGI,[11],59.7 µM
same,TGI,[12],> 100 µM
same,TGI,[13],> 100 µM
same,TGI,[14],20.7 µM
same,TGI,[15],44.1 µM
same,TGI,[16],> 100 µM
same,TGI,[17],> 100 µM
same,TGI,[18],72.3 µM
same,TGI,[19],> 100 µM
same,TGI,[20],45 µM
same,TGI,[21],> 100 µM
same,TGI,[22],> 100 µM
same,TGI,[23],33.3 µM
same,TGI,[24],> 100 µM
same,TGI,[25],75.5 µM
same,TGI,[26],> 100 µM
same,TGI,[27],> 100 µM
same,TGI,[28],> 100 µM
same,TGI,[29],72.8 µM
same,TGI,[30],68 µM
same,TGI,[31],30.5 µM
same,TGI,[32],68 µM
same,TGI,[33],74.4 µM
same,TGI,[34],36.3 µM
same,TGI,[35],> 100 µM
same,TGI,[36],> 100 µM
same,TGI,[37],> 100 µM
same,TGI,[38],> 100 µM
same,TGI,[39],41.8 µM
same,TGI,[40],> 100 µM
same,TGI,[41],> 100 µM
same,TGI,[42],74.9 µM
same,TGI,[43],75 µM
same,TGI,[44],76 µM
same,TGI,[45],> 100 µM
same,TGI,[46],54.3 µM
same,TGI,[47],77.3 µM
same,TGI,[48],90.5 µM
same,TGI,[49],> 100 µM
same,TGI,[50],> 100 µM
same,TGI,[51],> 100 µM
same,TGI,[52],> 100 µM
same,TGI,[53],> 100 µM
same,TGI,[54],> 100 µM
same,TGI,[55],46.2 µM
same,TGI,[56],> 100 µM
same,TGI,[57],74.4 µM
O=C1c2cc(Cc3ccccc3)c(=O)c(Cc3ccccc3)cc2C(=O)c2cc(Cc3ccccc3)c(=O)c(Cc3ccccc3)cc21,TGI,[1],> 100 µM
same,TGI,[2],> 100 µM
same,TGI,[3],> 100 µM
same,TGI,[4],> 100 µM
same,TGI,[5],> 100 µM
same,TGI,[6],> 100 µM
same,TGI,[7],> 100 µM
same,TGI,[8],> 100 µM
same,TGI,[9],> 100 µM
same,TGI,[10],> 100 µM
same,TGI,[11],> 100 µM
same,TGI,[12],> 100 µM
same,TGI,[13],> 100 µM
same,TGI,[14],> 100 µM
same,TGI,[15],> 100 µM
same,TGI,[16],> 100 µM
same,TGI,[17],> 100 µM
same,TGI,[18],> 100 µM
same,TGI,[19],> 100 µM
same,TGI,[20],> 100 µM
same,TGI,[21],> 100 µM
same,TGI,[22],> 100 µM
same,TGI,[23],> 100 µM
same,TGI,[24],> 100 µM
same,TGI,[25],> 100 µM
same,TGI,[26],> 100 µM
same,TGI,[27],> 100 µM
same,TGI,[28],> 100 µM
same,TGI,[58],> 100 µM
same,TGI,[29],> 100 µM
same,TGI,[30],> 100 µM
same,TGI,[31],> 100 µM
same,TGI,[32],> 100 µM
same,TGI,[33],> 100 µM
same,TGI,[34],> 100 µM
same,TGI,[35],> 100 µM
same,TGI,[36],> 100 µM
same,TGI,[37],> 100 µM
same,TGI,[38],> 100 µM
same,TGI,[39],> 100 µM
same,TGI,[40],> 100 µM
same,TGI,[41],> 100 µM
same,TGI,[42],> 100 µM
same,TGI,[43],> 100 µM
same,TGI,[44],> 100 µM
same,TGI,[45],> 100 µM
same,TGI,[46],> 100 µM
same,TGI,[48],> 100 µM
same,TGI,[49],> 100 µM
same,TGI,[50],> 100 µM
same,TGI,[59],> 100 µM
same,TGI,[51],> 100 µM
same,TGI,[53],> 100 µM
same,TGI,[54],> 100 µM
same,TGI,[55],> 100 µM
same,TGI,[57],> 100 µM
